Results on 30 compounds are retold here after patent US11998539B2, “Substituted aminoquinolones as DGKalpha inhibitors for immune activation” (Bayer Aktiengesellschaft, priority 2019, dated 2024).

Each structure is given as a SMILES string.

In one assay the test system is intracranially injected GBM tumors.
Assay: not given
To be noted: concurrent administration; Dominguez et al. 2013; cited from earlier work.
As to `Cc1nc2sccn2c(=O)c1CCN1CCC(=C(c2ccccc2)c2ccc(F)cc2)CC1` [Example R59022], the “growth of intracranially injected GBM tumors” value is “decreased growth”.

For a further assay, the target named is T1, DGKα (Homo sapiens (Human), UniProt P23743).
Assay: not given
The following applies: prior art; cited from earlier work.
Target sequence in this assay (P23743 whole entry, species assumed): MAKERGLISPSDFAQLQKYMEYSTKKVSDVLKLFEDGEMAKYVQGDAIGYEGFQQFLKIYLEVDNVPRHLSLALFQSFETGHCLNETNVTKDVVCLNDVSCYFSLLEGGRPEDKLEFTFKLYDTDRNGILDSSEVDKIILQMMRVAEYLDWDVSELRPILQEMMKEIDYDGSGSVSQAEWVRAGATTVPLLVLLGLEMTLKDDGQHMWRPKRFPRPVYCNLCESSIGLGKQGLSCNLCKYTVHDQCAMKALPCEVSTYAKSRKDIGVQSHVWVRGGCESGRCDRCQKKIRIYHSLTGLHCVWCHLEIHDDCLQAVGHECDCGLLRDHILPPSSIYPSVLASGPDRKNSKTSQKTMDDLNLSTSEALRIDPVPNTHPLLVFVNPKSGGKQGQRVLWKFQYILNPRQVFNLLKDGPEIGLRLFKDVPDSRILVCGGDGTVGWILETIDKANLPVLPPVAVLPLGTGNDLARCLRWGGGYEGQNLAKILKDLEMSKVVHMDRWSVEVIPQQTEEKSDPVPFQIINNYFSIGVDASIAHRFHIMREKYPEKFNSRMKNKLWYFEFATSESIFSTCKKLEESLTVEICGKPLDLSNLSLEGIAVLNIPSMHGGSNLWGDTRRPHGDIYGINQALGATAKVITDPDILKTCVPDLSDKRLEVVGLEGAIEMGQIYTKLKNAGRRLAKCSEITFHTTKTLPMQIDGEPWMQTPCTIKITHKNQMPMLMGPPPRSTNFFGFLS
`O=C1/C(=C\C=C\c2ccco2)SC(=S)N1NS(=O)(=O)c1ccccc1` [CU-3]: the “inhibitory activity on DGKα” value is “sub-micromolar”.
As for `Cc1nc2sccn2c(=O)c1CCN1CCC(=C(c2ccc(F)cc2)c2ccc(F)cc2)CC1` [Ritanserin], the “inhibitory activity on DGKα” value is on record as “comparable activity”.
`Cc1ccc2c(C(=O)CN3CCN(C(=O)c4ccco4)CC3)c(C)[nH]c2c1` [AMB639752]: the “inhibitory activity on DGKα” value is listed as “micromolar”.

The next assay addresses T1, DGKα. Put plainly: Human DGKα kinase activity inhibition assay (ADP-Glo). The class given is biochemical. To be noted: recombinant full-length human DGKα, 55 μM ATP, 7 μM 1,2-dioleoyl-sn-glycerol, read-out: IC50 values of examples in in vitro human DGKa kinase activity inhibition assays. Put shortly: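 Recombinant full-length human DGKα (C-terminal FLAG, from insect cells) phosphorylated 1,2-dioleoyl-sn-glycerol presented in octyl-glucopyranoside micelles. ADP formed was quantified by ADP-Glo luminescence. Compounds were added from 100-fold DMSO stocks.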
Target sequence in this assay (P23743 other isoform, or with tags, fused parts or gaps): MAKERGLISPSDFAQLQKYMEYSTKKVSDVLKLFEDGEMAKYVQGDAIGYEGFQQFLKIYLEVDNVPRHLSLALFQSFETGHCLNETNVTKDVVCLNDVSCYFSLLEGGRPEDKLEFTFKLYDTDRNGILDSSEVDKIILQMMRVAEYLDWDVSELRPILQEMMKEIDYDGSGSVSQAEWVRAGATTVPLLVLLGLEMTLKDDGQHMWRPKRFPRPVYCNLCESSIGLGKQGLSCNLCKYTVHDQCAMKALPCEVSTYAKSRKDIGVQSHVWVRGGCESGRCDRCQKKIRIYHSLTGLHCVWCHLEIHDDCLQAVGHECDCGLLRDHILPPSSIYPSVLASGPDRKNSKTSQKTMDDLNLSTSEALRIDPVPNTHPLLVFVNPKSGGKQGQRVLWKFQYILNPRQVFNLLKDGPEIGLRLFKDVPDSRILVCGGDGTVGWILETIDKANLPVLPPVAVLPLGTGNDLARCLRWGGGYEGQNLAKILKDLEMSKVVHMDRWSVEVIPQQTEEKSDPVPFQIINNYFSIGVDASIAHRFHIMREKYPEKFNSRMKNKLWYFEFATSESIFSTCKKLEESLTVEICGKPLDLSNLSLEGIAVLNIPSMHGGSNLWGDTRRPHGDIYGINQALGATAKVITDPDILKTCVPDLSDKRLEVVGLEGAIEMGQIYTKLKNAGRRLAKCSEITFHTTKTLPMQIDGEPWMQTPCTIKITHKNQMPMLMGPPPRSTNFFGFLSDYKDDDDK
As for `Cc1ccc2oc(C3(C)CCN(c4c(C#N)c(=O)n(C)c5cc(C6COC6)ccc45)CC3)nc2c1` [Example 261, 1-methyl-4-[4-methyl-4-(5-methyl-1,3-benzoxazol-2-yl)piperidin-1-yl]-7-(oxetan-3-yl)-2-oxo-1,2-dihydroquinoline-3-carbonitrile], the half-maximal inhibitory concentration (IC50) amounted to 35 nM.
Same read-out and setting: in the case of `COc1ccc(C2CCN(c3c(C(N)=O)c(=O)n(C)c4ccccc34)CC2)cc1` [Example 112, 4-[4-(4-methoxyphenyl)piperidin-1-yl]-1-methyl-2-oxo-1,2-dihydroquinoline-3-carboxamide] it was 4.5 nM; in that of `Cn1c(=O)c(C(N)=O)c(N2CCC(c3nc(-c4ccccc4)no3)CC2)c2cc(Br)ccc21` [Example 523, 6-bromo-1-methyl-2-oxo-4-[4-(3-phenyl-1,2,4-oxadiazol-5-yl)piperidin-1-yl]-1,2-dihydroquinoline-3-carboxamide], 3.7 nM; in that of `Cc1ccc2oc(C3CCN(c4c(C#N)c(=O)n(C)c5c(Cl)cccc45)CC3)nc2c1` [Example 232, 8-chloro-1-methyl-4-[4-(5-methyl-1,3-benzoxazol-2-yl)piperidin-1-yl]-2-oxo-1,2-dihydroquinoline-3-carbonitrile], 163 nM.
`Cc1ccccc1-c1nnc(C2CCN(c3c(C(N)=O)c(=O)n(C)c4cc(O)c(Br)cc34)CC2)o1` [Example 529, 6-bromo-7-hydroxy-1-methyl-4-{4-[5-(2-methylphenyl)-1,3,4-oxadiazol-2-yl]piperidin-1-yl}-2-oxo-1,2-dihydroquinoline-3-carboxamide]: the IC50 came out at 46 nM.
With `Cc1ccc2oc(C3(C)CCN(c4c(C#N)c(=O)n(C)c5cc(C(F)(F)F)ccc45)CC3)nc2c1` [Example 290, 1-methyl-4-[4-methyl-4-(5-methyl-1,3-benzoxazol-2-yl)piperidin-1-yl]-2-oxo-7-(trifluoromethyl)-1,2-dihydroquinoline-3-carbonitrile], the IC50 was found to be 10 nM.
`Cc1ccc2nc(C3(C)CCN(c4c(C#N)c(=O)n(C)c5ccc(C)cc45)CC3)oc2c1` [Example 188, 1,6-dimethyl-4-[4-methyl-4-(6-methyl-1,3-benzoxazol-2-yl)piperidin-1-yl]-2-oxo-1,2-dihydroquinoline-3-carbonitrile]: the IC50 amounted to 2.6 nM.
For the compound `Cc1ccccc1-c1noc(C2CCN(c3c(C(N)=O)c(=O)n(C)c4ccccc34)CC2)n1` [Example 458, 1-methyl-4-{4-[3-(2-methylphenyl)-1,2,4-oxadiazol-5-yl]piperidin-1-yl}-2-oxo-1,2-dihydroquinoline-3-carboxamide], the concentration for half-maximal inhibition (IC50) came out at 4.3 nM.
`Cn1c(=O)c(C#N)c(N2CCC(c3nc4ccccc4o3)CC2)c2cc(C#N)ccc21` [Example 175, 4-[4-(1,3-benzoxazol-2-yl)piperidin-1-yl]-1-methyl-2-oxo-1,2-dihydroquinoline-3,6-dicarbonitrile]: the half-inhibitory concentration (IC50) was 4.2 nM.
Take `Cn1c(=O)c(C#N)c(N2CCC(c3nc4ccc(Br)cc4s3)CC2)c2ccccc21` [Example 14, 4-[4-(6-bromo-1,3-benzothiazol-2-yl)piperidin-1-yl]-1-methyl-2-oxo-1,2-dihydroquinoline-3-carbonitrile]: the IC50 was determined as 4.4 nM.
On the same count and under the same terms, in the case of `COCCNc1cc2c(cc1C)c(N1CCC(c3nc4cc(C)ccc4o3)CC1)c(C#N)c(=O)n2C` [Example 547, 7-[(2-methoxyethyl)amino]-1,6-dimethyl-4-[4-(5-methyl-1,3-benzoxazol-2-yl)piperidin-1-yl]-2-oxo-1,2-dihydroquinoline-3-carbonitrile] it was 0.6 nM.
Still for that read-out and setting: next, `Cc1ccc2oc(C3CCN(c4c(C(N)=O)c(=O)n(C)c5ccc(F)cc45)CC3)nc2c1` [Example 298, 6-fluoro-1-methyl-4-[4-(5-methyl-1,3-benzoxazol-2-yl)piperidin-1-yl]-2-oxo-1,2-dihydroquinoline-3-carboxamide]: 0.5 nM; `Cc1ccc2c(c1)c(N1CCC(C)(c3nc4ccccc4o3)CC1)c(C#N)c(=O)n2C` [Example 214, 4-[4-(1,3-benzoxazol-2-yl)-4-methylpiperidin-1-yl]-1,6-dimethyl-2-oxo-1,2-dihydroquinoline-3-carbonitrile]: 0.9 nM.
As to `Cn1c(=O)c(C#N)c(N2CCC(C)(c3nc4ccccc4o3)CC2)c2ccccc21` [Example 1, 4-[4-(1,3-benzoxazol-2-yl)-4-methylpiperidin-1-yl]-1-methyl-2-oxo-1,2-dihydroquinoline-3-carbonitrile], the IC50 worked out at 1.4 nM.
On the same count and under the same terms, in the case of `Cc1cc2c(N3CCC(c4ccn(-c5ccccc5C)n4)CC3)c(C#N)c(=O)n(C)c2cc1Br` [Example 560, 7-bromo-1,6-dimethyl-4-{4-[1-(2-methylphenyl)-1H-pyrazol-3-yl]piperidin-1-yl}-2-oxo-1,2-dihydroquinoline-3-carbonitrile] it was 105 nM; in that of `Cn1c(=O)c(C#N)c(N2CCC(c3cccnc3)CC2)c2ccccc21` [Example 144, 1-methyl-2-oxo-4-[4-(pyridin-3-yl)piperidin-1-yl]-1,2-dihydroquinoline-3-carbonitrile], 897 nM; in that of `Cn1c(=O)c(C#N)c(N2CCC(c3nc4ccccc4o3)CC2)c2cc(F)ccc21` [Example 206, 4-[4-(1,3-benzoxazol-2-yl)piperidin-1-yl]-6-fluoro-1-methyl-2-oxo-1,2-dihydroquinoline-3-carbonitrile], 0.8 nM.
Regarding `Cn1c(=O)c(C#N)c(N2CCC(c3ccc(S(C)(=O)=O)cc3)CC2)c2ccccc21` [Example 65, 4-{4-[4-(methanesulfonyl)phenyl]piperidin-1-yl}-1-methyl-2-oxo-1,2-dihydroquinoline-3-carbonitrile], the IC50 was 74 nM.
Consider `Cc1ccc2c(c1)c(N1CCC(c3nc4ccccc4o3)CC1)c(C#N)c(=O)n2C` [Example 165, 4-[4-(1,3-benzoxazol-2-yl)piperidin-1-yl]-1,6-dimethyl-2-oxo-1,2-dihydroquinoline-3-carbonitrile], for which the IC50 stood at 2.6 nM.
Same read-out and setting: in the case of `COc1ccc2c(N3CCC(C)(c4nc5cc(C)ccc5o4)CC3)c(C#N)c(=O)n(C)c2c1` [Example 248, 7-methoxy-1-methyl-4-[4-methyl-4-(5-methyl-1,3-benzoxazol-2-yl)piperidin-1-yl]-2-oxo-1,2-dihydroquinoline-3-carbonitrile] it was 6.9 nM; in that of `Cc1ccc2nc(C3(C)CCN(c4c(C(N)=O)c(=O)n(C)c5ccc(C)cc45)CC3)oc2c1` [Example 197, 1,6-dimethyl-4-[4-methyl-4-(6-methyl-1,3-benzoxazol-2-yl)piperidin-1-yl]-2-oxo-1,2-dihydroquinoline-3-carboxamide], 2.2 nM; in that of `Cc1ccc2oc(C3CCN(c4c(C#N)c(=O)n(C)c5cc(OC6CCOC6)ccc45)CC3)nc2c1` (single isomer, unassigned) [Example 381, 1-methyl-4-[4-(5-methyl-1,3-benzoxazol-2-yl)piperidin-1-yl]-2-oxo-7[(oxolan-3-yl)oxy]-1,2-dihydroquinoline-3-carbonitrile], 7.4 nM.
Same read-out and setting: next, `Cn1c(=O)c(C(N)=O)c(N2CCC(c3nc4ccccc4o3)CC2)c2ccc(Br)cc21` [Example 104, 4-[4-(1,3-benzoxazol-2-yl)piperidin-1-yl]-7-bromo-1-methyl-2-oxo-1,2-dihydroquinoline-3-carboxamide]: 0.6 nM; `COc1ccc2c(N3CCC(c4nc5ccc(Cl)cc5o4)CC3)c(C#N)c(=O)n(C)c2c1` [Example 258, 4-[4-(6-chloro-1,3-benzoxazol-2-yl)piperidin-1-yl]-7-methoxy-1-methyl-2-oxo-1,2-dihydroquinoline-3-carbonitrile]: 29 nM; `COc1ccc(C2CCN(c3c(C#N)c(=O)n(C)c4cc(C5=CCOCC5)ccc34)CC2)cc1` [Example 100, 7-(3,6-dihydro-2H-pyran-4-yl)-4-[4-(4-methoxyphenyl)piperidin-1-yl]-1-methyl-2-oxo-1,2-dihydroquinoline-3-carbonitrile]: 2.3 nM.
Turning to `Cn1c(=O)c(C#N)c(N2CCC(C)(c3ccccc3)CC2)c2ccccc21` [Example 58, 1-methyl-4-(4-methyl-4-phenylpipehdin-1-yl)-2-oxo-1,2-dihydroquinoline-3-carbonitrile], the IC50 was found to be 2.6 nM.
